Changes are numbered by the printed parent chain.

Test [1] deals with T1, GlyT2 P561S mutant (Homo sapiens, UniProt Q9Y345, P561S).
T1 construct: expressed in transfected cells; host or cells: Xenopus laevis oocytes (cRNA injection)
T1 sequence (Q9Y345 1-797 P561S): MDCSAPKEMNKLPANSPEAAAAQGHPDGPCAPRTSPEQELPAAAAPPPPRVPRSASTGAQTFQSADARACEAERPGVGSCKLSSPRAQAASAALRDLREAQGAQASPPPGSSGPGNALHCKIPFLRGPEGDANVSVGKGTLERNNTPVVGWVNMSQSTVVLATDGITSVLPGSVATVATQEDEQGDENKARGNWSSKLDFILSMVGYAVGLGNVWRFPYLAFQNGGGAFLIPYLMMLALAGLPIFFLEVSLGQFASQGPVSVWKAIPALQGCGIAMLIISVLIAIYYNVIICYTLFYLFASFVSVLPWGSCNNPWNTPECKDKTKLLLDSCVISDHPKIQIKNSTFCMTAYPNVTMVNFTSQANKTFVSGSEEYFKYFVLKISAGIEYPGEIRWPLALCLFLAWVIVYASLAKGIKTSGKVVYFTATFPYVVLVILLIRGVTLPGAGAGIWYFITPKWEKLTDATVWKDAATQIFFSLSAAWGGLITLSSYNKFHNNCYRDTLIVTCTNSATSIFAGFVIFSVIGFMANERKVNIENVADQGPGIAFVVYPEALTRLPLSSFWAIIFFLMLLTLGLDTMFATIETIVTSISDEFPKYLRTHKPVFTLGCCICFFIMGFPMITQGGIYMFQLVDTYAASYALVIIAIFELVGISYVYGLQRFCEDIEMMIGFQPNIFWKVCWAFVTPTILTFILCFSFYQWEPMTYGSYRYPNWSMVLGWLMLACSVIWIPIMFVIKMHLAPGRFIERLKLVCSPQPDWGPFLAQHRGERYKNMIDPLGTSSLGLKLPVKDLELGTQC
As to the kind of experiment: Glycine transport currents, two electrode voltage clamp, oocytes expressing GlyT2 P561S. Format: cell-based. To be noted: for IC50 / % Max. inhibition: GlyT2 P561S; for % Max. inhibition: mean ± SEM. Here is the method:
(§1) Glycine was first applied to establish maximal transport current.
(§2) Compounds were tested for inhibition of glycine transport on Xenopus laevis oocytes expressing mutant GlyT1 and GlyT2 transporters. n values are in brackets, with measurements taken from at least 2 batches of oocytes.
(In general: In two-electrode clamp one electrode senses voltage and the other passes current.)

Test [2] addresses T2, GlyT2 L569F mutant (Homo sapiens, UniProt Q9Y345, L569F).
T2 construct: expressed in transfected cells; host or cells: Xenopus laevis oocytes (cRNA injection)
T2 sequence (Q9Y345 1-797 L569F): T1 sequence (Q9Y345 1-797 P561S) with S561P, L569F
As to the kind of experiment: Glycine transport currents, two electrode voltage clamp, oocytes expressing GlyT2 L569F. To be noted: for % Max. inhibition: mean ± SEM. Type of test: cell-based. The procedure:
as §1, §2

For test [3], the target named is T3, GlyT1 L425I mutant (Homo sapiens, UniProt P48067, L439I).
T3 construct: expressed in transfected cells; host or cells: Xenopus laevis oocytes (cRNA injection)
T3 sequence (P48067 1-652 isoform P48067-3 L385I): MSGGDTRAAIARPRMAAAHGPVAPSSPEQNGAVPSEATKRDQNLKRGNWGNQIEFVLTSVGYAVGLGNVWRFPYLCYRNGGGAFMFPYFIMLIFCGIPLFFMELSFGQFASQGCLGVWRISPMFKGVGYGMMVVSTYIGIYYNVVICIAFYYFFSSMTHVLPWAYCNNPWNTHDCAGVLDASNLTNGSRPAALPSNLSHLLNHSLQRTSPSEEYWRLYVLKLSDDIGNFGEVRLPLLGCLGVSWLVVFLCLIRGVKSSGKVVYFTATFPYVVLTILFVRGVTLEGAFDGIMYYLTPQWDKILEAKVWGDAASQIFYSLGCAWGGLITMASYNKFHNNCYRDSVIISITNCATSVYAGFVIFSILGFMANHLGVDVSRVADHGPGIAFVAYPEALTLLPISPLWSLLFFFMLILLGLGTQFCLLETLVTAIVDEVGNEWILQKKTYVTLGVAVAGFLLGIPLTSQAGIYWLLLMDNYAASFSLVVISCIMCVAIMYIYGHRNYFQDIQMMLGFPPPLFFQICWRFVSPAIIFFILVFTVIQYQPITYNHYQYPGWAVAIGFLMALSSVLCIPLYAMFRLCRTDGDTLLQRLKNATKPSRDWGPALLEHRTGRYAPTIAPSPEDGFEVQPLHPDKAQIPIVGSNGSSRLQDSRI
The experiment in a line: Glycine transport currents, two electrode voltage clamp, oocytes expressing GlyT1 L425I. Format: cell-based. The note with it: for % Max. inhibition: mean ± SEM; for sensitivity of GlyT1 L425I to inhibition: similar to the WT GlyT1 response. The procedure: as §1, §2

Test [4] deals with GlyT1 WT. Also on record: method as in earlier work. The note with it: previously published; cited from earlier work.
Setting [5] is: GlyT1 L425I, greater than maximum concentration applied (footnote a).

For orientation: EC50 means the concentration that produces a half-maximal response. Low readings indicate a more potent agent, high ones a less potent agent. For the compound `NCC(=O)O` [Glycine], the EC50 in test [1] (glycine transport, GlyT2 P561S (TM8)) worked out at 15.5 ± 4.1 µM; in test [2] (glycine transport, GlyT2 L569F (TM8)), 7 ± 0.6 µM; in test [3] (glycine transport, GlyT1 mutant printed I425L (EL4)) it was 45.1 ± 9.6 µM.

As a reminder, the IC50 is the concentration at which inhibition is half-maximal. In the case of `CCCCC/C=C\C/C=C\C/C=C\C/C=C\CCCC(=O)NCC(=O)O` [N-arachidonyl Glycine, reference compound], the half-inhibitory concentration (IC50) was 3.59 µM in test [2] (GlyT2 L569F, mean (95% CI)); above 10 µM in test [3] (setting [5]); above 10 µM in test [4]. For the same compound, the “% Max. inhibition” value in test [2] (GlyT2 L569F) was 63.7 ± 19.0 (p=0.9990) %; in test [3] (GlyT1 L425I), 31.6 ± 6.9 (p=0.0361) %.

For the compound `CCCCCCCC/C=C\CCCCCCCC(=O)NCC(=O)O` [N-oleoyl Glycine, reference compound], the IC50 in test [1] (mean (95% CI)) was 0.564 µM; in test [2] (GlyT2 L569F, greater than maximum concentration applied (footnote a)) it was above 10 µM; in test [3] (setting [5]), above 10 µM; in test [4] it was above 10 µM. In addition, the “% Max. inhibition” value is on record as 62.1 ± 4.8 (p=0.9242) % in test [1] and 32.5 ± 3.6 (p=0.0005) % in test [2] (GlyT2 L569F). In addition, in test [3] (GlyT1 L425I, footnote b), the “% Max. inhibition (% inhibition at the highest concentration of inhibitor used)” value is 28.5 ± 5.3^b (p=0.0564) %. The “sensitivity of GlyT1 L425I to inhibition” value in test [3] was “insensitive”.

Consider `CCCCCCCC/C=C\CCCCCCCC(=O)O[C@H](CC(=O)[O-])C[N+](C)(C)C` [oleoyl L-Carnitine, reference compound], for which the IC50 was above 3 µM in test [1] (greater than maximum concentration applied (footnote a)); 1.2 µM in test [2] (GlyT2 L569F, mean (95% CI)); above 10 µM in test [4]. Moreover, the “% Max. inhibition” value in test [1] was 31.6 ± 5.2 (p=0.0001) %; in test [3] (GlyT1 L425I) it was 74.6%. Also, the “% Max. inhibition (% inhibition at the highest concentration of inhibitor used)” value in test [2] (GlyT2 L569F, footnote b) is recorded as 45.5 ± 7.0^b (p=0.0038) %.

Regarding `CCCCCCCC/C=C\CCCCCCCC(=O)N[C@@H](CC(=O)O)C(=O)O` [oleoyl l-Aspartate], the values for the IC50 in test [1] (mean (95% CI)) and in test [4] were 2.54 µM and above 10 µM, respectively. Besides, the “% Max. inhibition” value in test [1] was 58.2 ± 4.7 (p=0.0954) %.

Take `CCCCCCCC/C=C\CCCCCCCC(=O)N[C@@H](CCCCN)C(=O)O` [oleoyl l-Lysine]: the concentration for half-maximal inhibition (IC50) in test [1] (mean (95% CI)) was 0.0692 µM; in test [2] (GlyT2 L569F, mean (95% CI)), 0.301 µM; in test [3] (GlyT1 L425I, mean (95% CI)) it was 0.236 µM; in test [4] it was above 3 µM. The “% Max. inhibition” value in test [1] was 71.5 ± 4.8 (p=0.0758) %; in test [2] (GlyT2 L569F), 76.8 ± 5.8 (p=0.4504) %; in test [3] (GlyT1 L425I), 95.6%. Also, the “fold lower apparent affinity at GlyT1 L425I” value in test [3] (GlyT1 L425I compared with WT GlyT2) was 9 fold.

With `CCCCCCCC/C=C\CCCCCCCC(=O)N[C@@H](Cc1c[nH]c2ccccc12)C(=O)O` [oleoyl l-Tryptophan], the IC50 in test [1] (mean (95% CI)) was 0.318 µM; in test [3] (setting [5]), above 3 µM; in test [4], above 10 µM. The “% Max. inhibition” value in test [1] was 61.4 ± 4.2 (p=0.0001) %; in test [3] (GlyT1 L425I), 35.7 ± 13.2 (p=0.2787) %. Also, the “sensitivity of GlyT1 L425I to inhibition” value in test [3] is on record as “insensitive”.

Turning to `CCCCCCCC/C=C\CCCCCCCC(=O)N[C@H](C(=O)O)C(C)C` [oleoyl l-Valine], the IC50 was 0.753 µM in test [1] (mean (95% CI)) and above 30 µM in test [4]. For the same compound, the “% Max. inhibition” value in test [1] was 94.5 ± 4.7 (p=0.9462) %.

In the case of oleoyl d-Lysine, the results for the half-inhibitory concentration (IC50) in test [1] (mean (95% CI)) and in test [4] were 0.558 µM and above 3 µM, respectively. In addition, in test [1], the “% Max. inhibition” value was 76.7 ± 8.1 (p=0.4299) %.

The values are drawn from paper PMC6797481, “Identification of an allosteric binding site on the human glycine transporter, GlyT2, for bioactive lipid analgesics” (eLife, 2019).
